Data reported in patent US20230140290A1, “SALICYLAMIDE DERIVATIVES AND RELATED METHODS OF MAKING” (THE BOARD OF REGENTS OF THE UNIVERSITY OF TEXAS SY, priority 2020, published 2023).

Columns and labels:
Assay type in all cases: cell-based, HAdV-5
[1] = system: wild-type HAdV5; assay: HAdV DNA quantification by real-time PCR (DNA replication); details: 24 h
Description: DNA Quantification by Real-Time PCR. […] Infected cells were incubated 24 h at 37° C. in 500 μL of complete DMEM containing 25 μM of either compounds or the same volume of DMSO (positive control). All samples were done in duplicate. After 24 h of incubation at 37° C., DNA was purified from the cell lysate with the QIAamp DNA Mini Kit (QIAGEN, Valencia, Calif.) following the manufacturer's instructions. TaqMan primers and probes for a common region of the HAdV5 were designed with the GenScript Real-Time PCR (TaqMan) Primer Design software (GenScript). […] Real-time PCR mixtures consisted of 9.5 μL of the purified DNA, AQ1 and AQ2 at a concentration of 200 nM each and Probe at a concentration of 50 nM in a total volume of 25 μL. The PCR cycling protocol was 95° C. for 3 min followed by 40 cycles of 95° C. for 10 s and 60° C. for 30 s. Human glyceraldehyde-3-phosphate dehydrogenase (GAPDH) gene was used as internal control. Oligonucleotides sequences for GAPDH and conditions were those previously reported by Henke-Gendo et al. (2012).
For quantification, gene fragments from hexon, and GAPDH were cloned into the pGEM-T Easy vector (Promega) and known concentrations of template were used to generate a standard curve in parallel for each experiment. All assays were performed in thermal cycler LightCycler® 96 System (Roche).
(§1) HAdV DNA Quantification by Real-Time PCR. […] All samples were done in duplicate. After 24 h of incubation at 37° C., DNA was purified from the cell lysate with the E.Z.N.A.® Tissue DNA Kit (Omega Bio-tek, Norcross, Ga.) following the manufacturer's instructions. TaqMan primers and probes for a common region of the HAdV5 were designed with the GenScript Real-Time PCR (TaqMan) Primer Design software (GenScript). […] Real-time PCR mixtures consisted of 9.5 μL of the purified DNA, AQ1 and AQ2 at a concentration of 200 nM each and Probe at a concentration of 50 nM in a total volume of 25 μL. The PCR cycling protocol was 95° C. for 3 min followed by 40 cycles of 95° C. for 10 s and 60° C. for 30 s. Human glyceraldehyde-3-phosphate dehydrogenase (GAPDH) gene was used as internal control. Oligonucleotides sequences for GAPDH and conditions were those previously reported by Henke-Gendo et al. (2012).
as §1, with “DNA” for “HAdV DNA”

[2] = system: wild-type HAdV5; assay: Nuclear-associated HAdV genomes (real-time PCR)
[3] = system: HAdV5-GFP; assay: Plaque assay (inhibition of HAdV plaque formation); details: for Selectivity index (SI): ratio of CC50 to IC50 in plaque assay; for inhibition at 10 µM: read-out: Plaque Assay (%) Inhibition (10 μM); for IC50: read-out: Plaque Assay IC50 (μM), HAdV5-GFP, low MOI, 293β5 cell line
Procedure, shortened: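 Compounds were present in the post-infection mixture at 10 μM, or at 10 to 0.3 μM for dose-response. Infection used low MOI HAdV5-GFP (0.06 vp/cell) on 80-90% confluent cells, 2 h rocking at 37° C, then a PBS wash.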

[4] = system: HAdV5-GFP; assay: Entry assay (HAdV5-mediated GFP expression); details: for inhibition at 50 µM: read-out: (%) Inhibition Entry Assay (50 μM)
Procedure, shortened: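 Human A549 cells (3×10^5/well) infected with HAdV5-GFP at 2000 vp/cell with compounds at 50 μM or in dose-response, in triplicate. Incubation 48 h at 37° C., 5% CO2. Standard infection curve from 2-fold virus dilutions without compound run in parallel.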

[5] = FIG. 4, concentrations by CC50 (2-50 μM)
[6] = FIG. 3, 45 min post infection, concentrations by CC50 (2-50 μM)
[7] = A549, read-out: IC50 Entry Assay (μM), HAdV5-GFP, high MOI, A549 cell line

SMILES | inhibition of HAdV-5 DNA replication (qPCR) [1, 5] | amount of nuclear-associated HAdV genomes versus DMSO [2, 6] | Selectivity index (SI) [3] | inhibition at 10 µM [3] [%] | IC50 [3] [µM] | inhibition at 50 µM ([4]; A549, 48 h) [%] | IC50 [4, 7] [µM] | inhibition of HAdV-5 DNA replication (qPCR) ([1]; FIG. 6A, 10-fold plaque IC50) | amount of nuclear-associated HAdV genomes versus DMSO ([2]; FIG. 5A, 45 min post-infection, 10-fold plaque IC50) | IC50 ([4]; {}) [µM] | inhibition at 7.8 µM ([1]; read-out: inhibition of HAdV-5 DNA replication (qPCR)) [%] | inhibition of accessibility of HAdV DNA to the nucleus ([2]; FIG. 5B, 45 min post-infection, 10-fold plaque IC50) | EC50 ([3]; read-out: EC50 (plaque assay)) [µM] | EC50 ([4]; A549, 48 h, read-out: EC50 (entry assay, as worded in text)) [µM]
O=C(Nc1ccc([N+](=O)[O-])cc1F)c1cc(Cl)ccc1O [Compound 11, 5-Chloro-N-(2-fluoro-4-nitrophenyl)-2-hydroxybenzamide] | low inhibition | partially inhibited | 218.2 | 98.7 ± 1.9 | 0.05 | 92.4 ± 0.2 | 1.57 ± 0.97 |  |  |  |  |  |  | 
O=C(Nc1cc(F)cc(C(F)(F)F)c1)c1cc(Cl)ccc1O [Compound 17, 5-Chloro-N-(3-fluoro-5-(trifluoromethyl)phenyl)-2-hydroxybenzamide] | low inhibition | no significant differences | 666.7 | 100 |  | 100 | 2.23 ± 0.58 |  |  |  |  |  |  | 
CC(C)[C@H](NC(=O)c1cc(Cl)ccc1O)C(=O)Nc1ccc([N+](=O)[O-])cc1Cl [Compound 58, (S)-5-Chloro-N-(1-((2-chloro-4-nitrophenyl)amino)-3-methyl-1-oxobutan-2-yl)-2-hydroxybenzamide] | low inhibition | no significant differences | 444.4 | 100 |  | 81.8 | 11.2 |  |  |  |  |  |  | 
O=C(N[C@H](Cc1ccccc1)C(=O)Nc1ccc([N+](=O)[O-])cc1Cl)c1cc(Cl)ccc1O [Compound 60, (R)-5-Chloro-N-(1-((2-chloro-4-nitrophenyl)amino)-1-oxo-3-phenylpropan-2-yl)-2-hydroxybenzamide] | significant (p≤0.0001) inhibitory activity | partially inhibited | 259.7 | 100 | 0.3 | 68.6 | 9.7 |  |  |  |  |  |  | 
CC1(Nc2ccc(NC(=O)c3cc(Cl)ccc3O)c(Cl)c2)CCCC1 [Compound 87, 5-Chloro-N-(2-chloro-4-((1-methylcyclopentyl)amino)phenyl)-2-hydroxybenzamide] |  |  | 580.7 | 100 | 0.27 | 85.4 | 15.2 to 30.8 | moderate inhibition | partially inhibited | 15.2 ± 5.1 |  |  |  | 
O=C(NCC1CCCCC1)c1cc(Cl)ccc1O [Compound 161, 5-Chloro-N-(cyclohexylmethyl)-2-hydroxybenzamide] |  |  | > 100 | 100 |  | 98.6 ± 14.8 | 12.3 ± 4.8 |  |  |  | 50 | more than 99% | 0.78 | 12.3
